Literature values in patent US20100297195A1, “CONTROLLED RELEASE LAMOTRIGINE FORMULATIONS” (RANBAXY LABORATORIES LIMITED, priority 2009, published 2010).

Conditions: oral administration

absolute bioavailability: 98% | effect of food on bioavailability: not affected by food
Structure (SMILES): Nc1nnc(-c2cccc(Cl)c2Cl)c(N)n1 [Lamotrigine, 3,5-diamino-6-(2,3-dichlorophenyl)-1,2,4-triazine]
